According to article PMC5785467 (Nature, 2018):

Target: T1, beetle ICMT (Tribolium castaneum, UniProt D6WJ77)
T1 sequence (D6WJ77 1-281): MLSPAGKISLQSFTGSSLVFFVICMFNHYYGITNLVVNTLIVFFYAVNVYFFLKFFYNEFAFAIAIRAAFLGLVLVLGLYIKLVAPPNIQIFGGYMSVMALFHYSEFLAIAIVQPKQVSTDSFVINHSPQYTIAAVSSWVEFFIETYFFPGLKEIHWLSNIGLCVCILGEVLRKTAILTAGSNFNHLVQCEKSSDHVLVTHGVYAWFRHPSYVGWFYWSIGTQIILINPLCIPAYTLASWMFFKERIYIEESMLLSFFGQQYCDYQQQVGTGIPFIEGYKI
Assay: X-ray crystal structure, […] Å
Format: binding
Conditions: complex with monobody MB-15, lipidic cubic phase; cofactor site

Nc1ncnc2c1ncn2[C@@H]1O[C@H](CSCC[C@H](N)C(=O)O)[C@@H](O)[C@H]1O [AdoHcy]
X-ray crystal structure, 2.3 Å: AdoHcy is encapsulated within a pocket that is formed by the M6–M7 connector
